Measurements reported in the supplement of paper PMC10878532, “Sperm Toolbox—A selection of small molecules to study human spermatozoa” (PLOS ONE, 2024).
Structures can show the parent of a compound that is named as a salt.

Columns and labels:
human spermatozoa [1] = assay: acrosome-reacted (PNA+) sperm after agonist cocktail, percent change vs DMSO (capacitating); higher = more of the measured sperm population than DMSO, for viability, fewer PI-positive (dead) cells than DMSO; conditions: incubation time: 3h, capacitating + agonist cocktail 1h
human spermatozoa [2] = assay: hyperactivated motile sperm, percent change vs DMSO (capacitating); higher = more of the measured sperm population than DMSO, for viability, fewer PI-positive (dead) cells than DMSO; conditions: incubation time: 30min incubation
human spermatozoa [3] = assay: progressively motile sperm, percent change vs DMSO (non-capacitating); higher = more of the measured sperm population than DMSO, for viability, fewer PI-positive (dead) cells than DMSO; extreme values may be limits of the assay
human spermatozoa [4] = assay: viability fold change, 1 - (PI-positive fraction / DMSO median); higher = more of the measured sperm population than DMSO, for viability, fewer PI-positive (dead) cells than DMSO; conditions: incubation time: 3h, non-capacitating
human spermatozoa [5] = assay: change in acrosome-reacted (PNA+) sperm vs DMSO, no agonist (capacitating); higher = more of the measured sperm population than DMSO, for viability, fewer PI-positive (dead) cells than DMSO; conditions: incubation time: 3h
HepG2 = HepG2 toxicity (resazurin), effect normalised to DMSO (DMSO = 0); higher = more features changed / larger toxic effect; conditions: incubation time: 70h incubation
human spermatozoa [6] = assay: progressively motile sperm, percent change vs DMSO (capacitating); higher = more of the measured sperm population than DMSO, for viability, fewer PI-positive (dead) cells than DMSO; conditions: incubation time: 30min incubation
HeLa [7] = assay: HeLa toxicity: nuclei-count effect normalised to DMSO (DMSO = 0); higher = more features changed / larger toxic effect; conditions: incubation time: 24h incubation
human spermatozoa [8] = assay: total motile sperm, percent change vs DMSO (non-capacitating); higher = more of the measured sperm population than DMSO, for viability, fewer PI-positive (dead) cells than DMSO
HeLa [9] = assay: Cell Painting percent induction (share of features beyond 2 z-scores vs DMSO); higher = more features changed / larger toxic effect; extreme values may be limits of the assay; conditions: incubation time: 24h incubation
[10] = incubation time: 10min incubation, 9.99 µM
[11] = incubation time: 10min incubation, 29.9 µM
[12] = incubation time: 3h incubation, 9.99 µM
[13] = incubation time: 3h incubation, 29.9 µM
[14] = incubation time: 6h incubation, 9.99 µM
[15] = incubation time: 6h incubation, 29.9 µM
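Throughout, for progressively motile sperm, percent change vs DMSO (non-capacitating): pooled live human sperm from at least 3 donors, tracked by automated microscopy in 0.5 s time-lapse movies, compounds at 10 and 30 µM, versus median of 16 DMSO wells per plate.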
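Throughout, for total motile sperm, percent change vs DMSO (non-capacitating): sperm pooled from at least 3 donors, tracked in 0.5 s time-lapse movies by automated microscopy after 10 min, 3 h or 6 h with compound at 10 or 30 µM.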

Structure (SMILES) | acrosome-reacted (human spermatozoa [1]; 9.99 µM) | acrosome-reacted (human spermatozoa [1]; 29.9 µM) | hyperactivated motile sperm (human spermatozoa [2]; 9.99 µM) | hyperactivated motile sperm (human spermatozoa [2]; 29.9 µM) | progressively motile sperm (human spermatozoa [3]; [10]) | progressively motile sperm (human spermatozoa [3]; [11]) | progressively motile sperm (human spermatozoa [3]; [12]) | progressively motile sperm (human spermatozoa [3]; [13]) | progressively motile sperm (human spermatozoa [3]; [14]) | progressively motile sperm (human spermatozoa [3]; [15]) | viability fold change (human spermatozoa [4]; 9.99 µM) | viability fold change (human spermatozoa [4]; 29.9 µM) | change in acrosome-reacted (human spermatozoa [5]; 9.99 µM) | change in acrosome-reacted (human spermatozoa [5]; 29.9 µM) | HepG2 toxicity (HepG2; 10 µM) | HepG2 toxicity (HepG2; 30 µM) | progressively motile sperm (human spermatozoa [6]; 9.99 µM) | progressively motile sperm (human spermatozoa [6]; 29.9 µM) | HeLa toxicity: nuclei-count effect normalised (HeLa [7]; 9.99 µM) | HeLa toxicity: nuclei-count effect normalised (HeLa [7]; 29.9 µM) | total motile sperm (human spermatozoa [8]; [10]) | total motile sperm (human spermatozoa [8]; [11]) | total motile sperm (human spermatozoa [8]; [12]) | total motile sperm (human spermatozoa [8]; [13]) | total motile sperm (human spermatozoa [8]; [14]) | total motile sperm (human spermatozoa [8]; [15]) | Cell Painting percent induction (HeLa [9]; 9.99 µM) | Cell Painting percent induction (HeLa [9]; 29.9 µM)
OCCN(CCO)c1nc(N2CCCCC2)c2nc(N(CCO)CCO)nc(N3CCCCC3)c2n1 [Dipyridamole] | 56.3% | 74.8% | 88.9% | 43.9% | 36% | 38.1% | 80.3% | 58.3% | 82.1% | 83.5% | -2.05 | -2.06 | 1.09% | 1.87% | -2.63% | 7.46% | 16.4% | 19.4% | 3.21% | 2% | 0.517% | -2.33% | -2.26% | -16% | -6.57% | -14.4% | 0.036% | 0.18%
CCN(CC)C(=S)SSC(=S)N(CC)CC [Disulfiram] | 86.5% | 13% | -82.7% | -88.4% | -96.4% | -100% | -100% | -99.9% | -99.3% | -100% | -0.587 | -1.58 | 16.4% | 16% | -2.95% | 20.2% | -96.3% | -99.9% | 16.7% | 49.8% | -80.8% | -91.5% | -94.3% | -91.5% | -88.6% | -93.2% | 0% | 0.576%
COc1ccc2nc([S@@+]([O-])Cc3ncc(C)c(OC)c3C)[nH]c2c1 [Esomeprazole] | 25.4% | 50.1% | 72.4% | 123% | 11.4% | 21.1% | 37% | 43.5% | 50.4% | 35.7% | 0.0722 | -0.272 | 0.624% | 1.41% | -1.96% | 4.42% | 15.2% | 19% | -3.81% | -3.61% | -4.34% | -3.89% | -8.86% | -9.65% | -8.85% | -15.2% | 0% | 0%
CC(C)C(C(=O)OC(C#N)c1cccc(Oc2ccccc2)c1)c1ccc(Cl)cc1 (centres undefined) [Fenvalerate] | 16% | 11.8% | -11.7% | -10.3% | -11.9% | -13.7% | 3.76% | -3.88% | 11.3% | 5.45% | -0.675 | 0.413 | 1.05% | 0.945% | 6.05% | -6.97% | -16% | -21.3% | 8.15% | 4.61% | -12.2% | -13.5% | -9.13% | -13% | -6.57% | -13.4% | 0% | 0.036%
C=C[C@@]1(C)CC(=O)[C@@]2(O)[C@](C)(O1)[C@@H](OC(C)=O)[C@@H](O)C1C(C)(C)CC[C@H](O)[C@@]12C (some centres undefined) [Forskolin] | 0.165% | -4.34% | 26.6% | 5.16% | 0.859% | 0.86% | 3.82% | 13.8% | -0.781% | 12% | -0.712 | -0.989 | 0.404% | 0.226% | 3.42% | -7.11% | 7.73% | 8.32% | -1.74% | -1.47% | 0.618% | 0.675% | -0.0205% | 4.68% | -0.697% | -0.227% | 1.19% | 0.108%
O=c1c(-c2ccc(O)cc2)coc2cc(O)cc(O)c12 [Genistein] | 4.37% | 8.14% | 20.2% | -0.318% | 5.98% | 2.04% | 6.38% | 0.504% | 9.21% | 2.89% | -0.643 | -0.0998 | 1.12% | 1.51% | 6.96% | -8.2% | 9.31% | 12% | 17.4% | 22.9% | -0.344% | -2.3% | -0.864% | 0.829% | -0.945% | -6.76% | 0.108% | 0.612%
Cc1cc2c(C(C)C)c(O)c(O)c(C=O)c2c(O)c1-c1c(C)cc2c(C(C)C)c(O)c(O)c(C=O)c2c1O [Gossypol] | -15.6% | -28.9% | -21.9% | -39.1% | -3.27% | -2.36% | 3.33% | -8.54% | 12.2% | -12.2% | -0.0154 | 0.577 | 1.41% | 1.17% | 54.9% | 102% | -0.382% | 7.08% | 27.1% | 73.1% | -1.73% | 0.377% | -2.73% | -0.0743% | -0.633% | -2.29% | 0.072% | 17.1%
O=S(=O)(NCCNC/C=C/c1ccc(Br)cc1)c1cccc2cnccc12 [H 89 dihydrochloride] | 4.9% | 11.9% | 4.83% | -35.2% | 12.9% | 3.24% | 21.9% | 3.91% | 27.7% | 10.5% | -0.8 | -1.21 | 0.62% | 0.493% | -3.98% | 92.3% | 9.41% | 1.95% | 7.55% | 17.5% | 5.7% | 1.67% | 2.42% | 2.31% | 2.24% | 1.63% | 0.648% | 1.84%
